# Assay results from patent publication US20250360116A1, “PICOLINIC-2-CARBOXAMIDE HYBRIDIZED WITH ANTHRAQUINONE DERIVATIVES, METHODS OF PREPARATION, AND A PHARMACEUTICAL COMPOSITION COMPRISING THE SAME” (AL-ZAYTOONAH UNIVERSITY OF JORDAN, priority 2023, published 2025).
# Marks after values point to notes of the source that are not given here.
# Test system: Triton WR-1339 induced hyperlipidemic Wistar Rats
# Assay: Plasma lipid levels in triton WR-1339 induced hyperlipidemia in rats
# Type: in vivo
# Conditions: for HDL-C (plasma) / LDL-C (plasma) / TC (plasma) / TG (plasma): 20 mg/kg intragastric after triton WR-1339 200 mg/Kg i.p., about 6 hours, mean ± SEM, five rats; for Effect on elevated TC levels / Effect on elevated plasma LDL-C levels / Effect on elevated plasma TG levels / Effect on plasma HDL-C levels: in words, in comparison with HCG, 20 mg/kg intragastric, 6 hours
# Method: The study was conducted on twenty-five adult male Wistar Rats weighting 200±10 g. Wistar Rats were bred in the animal care center of Faculty of Pharmacy in Al-Zaytoonah University of Jordan. The animals were kept on 12 hours' light/dark cycle, at room temperature (25±1° C.) with free access to food and water. The rats were divided randomly into five groups each consist of five rats, whereby Group I was the normal control group (“NCG”) that received an intraperitoneal administration of normal saline, Group II was the hyperlipidemic control group (“HCG”) that received an intraperitoneal injection of about 200 mg/Kg triton WR-1339 dissolved in about 4% dimethylsulfoxide (“DMSO”)/corn oil, Groups (III, IV, V) rats received intraperitoneal injection of about 200 mg/Kg triton WR-1339.
# After about 6 hours of treatment, the rats were anaesthetized with diethyl ether and blood was collected. The blood samples were immediately centrifuged at about 3000 rpm for about 10 minutes and the serum was used for lipid profile measurements (TG, LDL-C, TC and HDL-C) by an automated chemistry analyzer (Model Erba XL-300, Mannheim, Germany). Furthermore, liver samples were collected, and then kept in liquid nitrogen, and stored at (−80° C.) for the mRNA extraction as described in Example 5 below.
# The plasma of TG, TC, LDL-C and HDL-C levels in HCG treated at 6 hours after administration of triton WR-1339 are shown in FIG. 2.
# After the injection of Wistar Rats with Triton WR-1339 in Example 3, Groups III, IV, V received an intragastric administration of (20 mg/kg by weight) of compounds C1, C2 and C3, respectively, dissolved in about 4% DMSO/corn oil. FIGS. 3, 4, 5, 6 illustrate bar charts showing the effect of the compounds C1, C2, and C3 on the Triton WR-1339 induced hyperlipidemic Wistar Rats after about 6 hours of treatment on TG, TC, LDL-C, and HDL-C.
SMILES,HDL-C (plasma),LDL-C (plasma),TC (plasma),TG (plasma),Effect on elevated TC levels,Effect on elevated plasma LDL-C levels,Effect on elevated plasma TG levels,Effect on plasma HDL-C levels
"O=C(Nc1ccc(O)c2c1C(=O)c1ccccc1C2=O)c1ccccn1 [Compound C3, N-(4-hydroxy-9,10-dioxo-9,10-dihydroanthracen-1-yl) picolinamide]",22 ± 2 mg/dL,11 ±1.2 ^ mg/dl,122 ± 11 mg/dL,1375 ± 23 mg/dL,non-significant effect,non-significant effect,non-significant effect,non-significant effect
"O=C(Nc1ccc2c(c1)C(=O)c1ccccc1C2=O)c1ccccn1 [Compound C2, N-(9,10-dioxo-9,10-dihydroanthracen-2-yl) picolinamide]",38 ± 4.4 ^a mg/dl,9 ± 0.6 ^a mg/dl,75 ± 15.2 ^a mg/dl,985 ± 15.3 ^a mg/dl,significantly decreased,significantly lowered,significantly decreased,significantly increased
"O=C(Nc1cccc2c1C(=O)c1ccccc1C2=O)c1ccccn1 [Compound C1, N-(9,10-dioxo-9,10-dihydroanthracen-1-yl) picolinamide]",56 ± 4.6 ^b mg/dl,6 ± 0.7 ^b mg/dl,42 ± 10 ^b mg/dl,145 ± 14.2 ^b mg/dl,significantly decreased,significantly lowered,significantly decreased,significantly increased
